This note sets out measurements from patent publication US8741944B2, “Anti-infective agents against intracellular pathogens” (priority 2007, dated 2014).

One data set has as its target recombinant PDK-1 (Homo sapiens (Human), UniProt O15530). In words: PDK-1 kinase activity (PDK-1 kinase assay kit, cell-free). It counts as biochemical. To be noted: for IC50: inhibiting recombinant PDK-1 kinase activity. As for the experimental part: PDK-1 kinase activity This in vitro assay was performed using a PDK-1 kinase assay kit (Upstate, Lake Placid, N.Y.) according to the vendor's instructions. This cell-free assay is based on the ability of recombinant PDK-1, in the presence of DMSO vehicle or the test agent, to activate its downstream kinase serum- and glucocorticoid-regulated kinase (SGK.) which, in turn, phosphorylates the Akt/SGK-specific peptide substrate RPRAATF with [γ-^32]-ATP. […] The reported values represent the means of two independent determinations.

Data set [1] has as its system PC-3 cells. Description: Cell viability analysis, MTT assay in PC-3 cells. The class given is cell-based, human. As for the experimental part:
Cell Culture PC-3 (p53−/−) human androgen-non-responsive prostate cancer cells were purchased from the American […] (Manassas, Va.). Cells were cultured in RPMI 1640 medium (Gibco, Grand Island, N.Y.) supplemented with 10% fetal bovine serum (FBS; Gibco) at 37° C. in a humidified incubator containing 5% CO2.
Controls received DMSO vehicle at a concentration equal to that in drug-treated cells. The medium was removed, replaced by 200 μl of 0.5 mg/ml of MTT in 10% FBS-containing RPMI-1640 medium, and cells were incubated in the CO2 incubator at 37° C. for 2 h. Supernatants were removed from the wells, and the reduced MTT dye was solubilized in 200 μL/well DMSO. Absorbance at 570 nm was determined on a plate reader.

In data set [2] the test system is Akt. In words: Immunoprecipitated Akt kinase assay after treatment of PC-3 cells (intracellular Akt activation). To be noted: PC-3 cells treated for 2 h; read-out: IC50 for inhibiting intracellular Akt activation. The class given is cell-based, human. As for the experimental part: Immunoprecipitated Akt kinase assay Akt immunoprecipitation was carried out according to a modified, published procedure. PC-3 cells were treated with DMSO vehicle or the test agents at the indicated concentrations for 2 h and then lysed at 4° C. for 1 h in buffer A containing 50 mM Tris-HCl, pH 7.5, 1% Triton X-100, 1 mM EDTA, 1 mM EGTA, 50 mM sodium fluoride, 10 mM sodium β-glycerophosphate. 0.1% 2-mercaptoethanol, 0.1 mM phenylmethylsiilfonyl fluoride, and 1 μg/mL each of aprotinin, pepstatin, and leupeptin. Cell lysates were centrifuged at 10,000 g for 5 min, and the supernatant was treated with anti-Akt at 4° C. for 60 min., followed by protein G-agarose beads for additional 60 min. The immunoprecipitate was used to analyze Akt kinase activity by using the Akt/SGK-specific peptide substrate RPRAATF as described above. Values represented the means of two independent determinations.

In data set [3] the test system is Akt. Description: Direct inhibition of immunoprecipitated Akt kinase activity. The class given is biochemical, human.
For another data set, the system named is phospho-Akt. Description: Western blot analysis of Akt and phospho-Akt in PC-3 cells. It counts as cell-based, human. The following applies: 5 μM and above. As for the experimental part:
Immunoblotting. The general procedure for the Western blot analysis of Akt and phospho-Akt is described as follows. Cells were washed in PBS, resuspended in SDS sample buffer sonicated by an ultrasonic sonicator for 5 see, and boiled for 5 min. After brief centrifugation, equivalent protein concentrations from the soluble fractions were resolved in 10% SDS-polyacrylamide gels on a Minigel apparatus, and transferred to a nitrocellulose membrane using a semi-dry transfer cell. The transblotted membrane was washed three times with TBS containing 0.05% Tween 20 (TBST). After blocking with TBST containing 5% nonfat milk for 60 min., the membrane was incubated with the primary antibody at 1:1,000 dilution in TBST-5% low fat milk at 4° C. for 12 h, and was then washed three times with TBST. The membrane was probed with goat anti-rabbit IgG-HRP conjugates (1:1,000) for 1 h at room temperature, and was washed with TBST three times. The immunoblots were visualized by enhanced chemiluminescence.

Data set [4] has as its system PC-3 cells. Description: Cell proliferation of PC-3 cells (Coulter counter, 10% FBS). The class given is cell-based, human. To be noted: 1 μM, 10% FBS-supplemented RPMI 1640 medium. As for the experimental part:
Cell Proliferation PC-3 cells were seeded into six-well plates at 50,000 cells/well in 10% FBS-containing RPMI 1640 medium. Following a 24 h attachment period, cells were treated in triplicate with the indicated concentration of compounds 1-36 or DMSO vehicle in 10% FBS-containing RPMI-1640 medium. At different time intervals, cells were harvested by trypsinization, and numerated using a Coulter counter model Z1 D/T (Beckman Coulter, Fullerton, Calif.).

Data set [5] deals with S. typhimurium. Description: Intracellular survival (gentamicin protection) assay, S. typhimurium in RAW 264.7 murine macrophages. The class given is cell-based, Salmonella typhimurium. As for the experimental part: The discovery that OSU-03012 induces autophagy in human cancer cells, coupled with the importance of autophagy as a defense against intracellular pathogens, prompted us to test the effect of this agent on the intracellular survival of S. typhimurium in infected RAW 264.7 murine macrophages. Both time- and dose-dependent effects of OSU-03012 were assessed in intracellular survival (i.e. gentamicin protection) assays. […] To determine if OSU-03012 had direct bactericidal activity, the effect of OSU-03012 on extracellular bacterial growth was examined in liquid medium (FIG. 3C) and on agar by the disc-diffusion method (not shown).

For data set [6], the system named is S. typhimurium. In words: Extracellular bacterial growth in liquid medium and on agar (disc-diffusion). It counts as cell-based, Salmonella typhimurium. The following applies: concentrations of up to 5 μM. For orientation: Agar diffusion results depend on both activity and mobility in agar.
For another data set, the system named is F. novicida. It counts as cell-based. The following applies: RAW 264.7 cells, 1 μM for 24 h.
The subject of the next data set is autophagy. In words: Autophagy induction. It counts as cell-based, human. The source says: OSU-03012 eliminates intracellular S. typhimurium by inducing autophagy in infected macrophages. […] Additional evidence for this mechanism of action comes from the human breast cancer cell lines, MCF-7 and MDA-MB-231, which differ in their expression levels of beclin-1, a tumor suppressor that is critical for the execution of autophagy (FIG. 5A). Accordingly, the ability of OSU-03012 to induce autophagy in these cell lines, as determined by the intensity of immunostaining for endogenous LC3, a marker of mammalian autophagosomes (FIG. 5C), correlates with their respective beclin-1 expression levels. Moreover, intracellular bacterial survival in OSU-03012-treated S. typhimurium-infected breast cancer cells also reflects their respective beclin-1 status (FIG. 5B). […] Moreover, OSU-03012 induces autophagy and bacterial clearance far more potently than rapamycin and at clinically attainable concentrations.

The conditions of data set [7]: in vivo.
Where [8] appears, read: inducing apoptotic death in PC-3 cells / PC-3 cell viability, read-out: IC50 PC-3.

“Also recorded” adds a separate entry of the source. Like-named read-outs stand apart in the source and are kept apart here.

Sequence of recombinant PDK-1 (O15530 whole entry, looked up): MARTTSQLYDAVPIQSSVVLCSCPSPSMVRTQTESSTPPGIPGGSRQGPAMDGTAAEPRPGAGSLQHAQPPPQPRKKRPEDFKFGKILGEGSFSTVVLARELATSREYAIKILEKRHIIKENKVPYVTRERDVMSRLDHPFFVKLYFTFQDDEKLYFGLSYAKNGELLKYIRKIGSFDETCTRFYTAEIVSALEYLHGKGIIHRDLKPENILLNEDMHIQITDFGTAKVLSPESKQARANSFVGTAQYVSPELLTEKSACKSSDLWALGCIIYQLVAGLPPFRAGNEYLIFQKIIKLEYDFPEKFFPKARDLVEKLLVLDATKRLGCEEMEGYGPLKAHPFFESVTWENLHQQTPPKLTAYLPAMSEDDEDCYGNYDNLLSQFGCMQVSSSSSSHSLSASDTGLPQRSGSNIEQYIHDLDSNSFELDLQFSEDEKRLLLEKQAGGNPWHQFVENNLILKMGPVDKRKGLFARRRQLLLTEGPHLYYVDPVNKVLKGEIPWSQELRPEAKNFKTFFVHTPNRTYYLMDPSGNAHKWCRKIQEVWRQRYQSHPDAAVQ

With “4-[5-4-biphenylyl)-3-(trifluoromethyl)-1H-pyrazol-1-yl]benzensulfonamide [Compound 45]”, the IC50 on recombinant PDK-1 was determined as 21 µM; in the data set with PC-3 cells [1] (setting [8]) it was 11 µM.

With “4-[5-(2-phenanthrenyl)-3-(trifluoromethyl)-1H-1-yl]benzenesulfonamide [Compound 59]”, the “improvement of IC50 values over 4-[5-(4-methylphenyl)-3-(trifluoromethyl)-1H-pyrazol-1-yl]benzenesulfonamide” value at recombinant PDK-1 (PDK-1 activity and PC-3 cell viability) is reported as “five- to six-fold”. Moreover, the IC50 in the data set with PC-3 cells [1] (24 h, 1% FBS-containing RPMI 1640 medium, read-out: dose required to induce 50% PC-3 cell death) is 5 µM; in the data set on PC-3 cells [1] (setting [8]) it was 5 µM; in the data set on Akt [2] it was 5 µM. Further, the “direct inhibitory effect on immunoprecipitated Akt kinase activity” value in the data set with Akt [3] is given as “Neither compound 59 nor other the other compounds displayed a direct inhibitory effect”. For the same compound, the “Akt dephosphorylation (Western blot)” value in the data set with phospho-Akt was “significant Akt dephosphorylation”. Besides, the “anti-proliferative activity on PC-3 cell proliferation” value in the data set with PC-3 cells [4] was “substantial anti-proliferative activity”.

As to “4-[5-(3′,5′-dimethyl[1,1;-biphenyl]-4-yl)-3-(trifluoromethyl)-1H-1-yl]benzenesulfonamide [Compound 53]”, on recombinant PDK-1, the IC50 was 17 µM.

Take “4-[5-(4-(phenylmethyl)phenyl)-3-(trifluoromethyl)-1H-1-yl]benzenesulfonamide [Compound 56]”: the IC50 on recombinant PDK-1 was found to be 15 µM; in the data set on PC-3 cells [1] (setting [8]), 8 µM.

For the compound “4-[5-(4′-bromomethyl[1,1′-biphenyl]-4-yl)-3-(trifluoromethyl)-1H-1-yl]benzenesulfonamide [Compound 52]”, the figures for the IC50 on recombinant PDK-1 and in the data set with PC-3 cells [1] (setting [8]) were 20 µM and 11 µM, respectively.

Take “4-[5-(4′-butyl[1,1′-biphenyl]-4-yl)-3-(trifluoromethyl)-1H-1-yl]benzenesulfonamide [Compound 54]”: the values for the IC50 at recombinant PDK-1 and with PC-3 cells [1] (setting [8]) were 32 µM and 15 µM, respectively.

For “4-[5-(4′-methyl[1,1′-biphenyl]4-yl)-3-(trifluoromethyl)-1H-1-yl]benzenesulfonamide [Compound 50]”, in the data set with PC-3 cells [1] (setting [8]), the IC50 was 8 µM.

For the compound “4-[5-(4′-tert-buty[1,1′-biphenyl]-4-yl)-3-(trifluoromethyl)-1H-1-yl]benzenesulfonamide [Compound 55]”, the results for the IC50 on recombinant PDK-1 and in the data set with PC-3 cells [1] (setting [8]) were 32 µM and 15 µM, respectively.

As for “4-[5-(4′triflouromethyl[1,1′-biphenyl]-4-yl)-3-(trifluoromethyl)-1H-1-yl]benzenesulfonamide [Compound 51]”, the IC50 at recombinant PDK-1 was found to be 18 µM; with PC-3 cells [1] (setting [8]), 8 µM.

Take “4-[5-(9-phenanthrenyl)-3-(trifluoromethyl)-1H-1-yl]benzenesulfonamide [Compound 60]”: the values for the IC50 at recombinant PDK-1 and with PC-3 cells [1] (setting [8]) were 42 µM and 23 µM, respectively.

On to “4-[5-(9H-fluoren-2-yl)-3-(trifluoromethyl)-1H-1-yl]benzenesulfonamide [Compound 57]”, for which the IC50 at recombinant PDK-1 stood at 16 µM.

“5-(2-Phenanthrenyl)-3-(trifluoromethyl)-4-(1H-tetrazol-5-ylmethylphenyl)-1H-pyrazole [Compound 69]”: the IC50 worked out at 45 µM at recombinant PDK-1 and 27 µM in the data set on PC-3 cells [1] (setting [8]).

Consider “5-(2-Phenanthrenyl)-3-(trifluoromethyl)-4-(1H-tetrazol-5-ylphenyl)-1H-pyrazole [Compound 64]”, for which the IC50 on recombinant PDK-1 worked out at 52 µM; in the data set with PC-3 cells [1] (setting [8]) it was 32 µM.

As to `Cc1ccc(-c2cc(C(F)(F)F)nn2-c2ccc(S(N)(=O)=O)cc2)cc1` [Comparative Compound, 4-[5-(4-methylphenyl)-3-(trifluoromethyl)-1H-pyrazol-1-yl]benzenesulfonamide, reference compound], the IC50 in the data set with PC-3 cells [1] (Homo sapiens, PC-3, read-out: IC50 PC-3) came out at 30 µM.

For `Cn1cnc(N)c2ncnc1-2` [Compound 3MA, 3-methyladenine], the “effect on ability of OSU-03012 to reduce intracellular bacterial survival” value in the data set on S. typhimurium [5] (infected RAW 264.7 cells, 1 μM OSU-03012 for 8 h) was “completely blocked”.

As for `NCC(=O)Nc1ccc(-n2nc(C(F)(F)F)cc2-c2ccc3c(ccc4ccccc43)c2)cc1` [OSU-03012], the IC50 on recombinant PDK-1 is ~5 µM; with S. typhimurium [5] (Salmonella enterica, RAW264.7, S. typhimurium in RAW 264.7, 8 h of treatment, read-out: IC50 of intracellular bacterial survival), ~0.2 µM. Besides, the “concentration of maximal inhibition of intracellular bacterial survival” value in the data set with S. typhimurium [5] (S. typhimurium in RAW 264.7, 8 h of treatment) came to 1 µM. For the same compound, in the data set with S. typhimurium [6], the “extracellular growth of S. typhimurium” value is “unaffected”. In the data set with F. novicida, the “intracellular survival of F. novicida” value is “drastically reduced; also recorded: reduced intracellular survival”. Besides, the “IC50 for autophagy induction” value with autophagy is on record as “sub-μM”. Also, the “oral bioavailability / pharmacokinetic properties” value in [7] is “orally bioavailable with favorable pharmacokinetic properties”.

In the case of `CO[C@H]1C[C@@H]2CC[C@@H](C)[C@@](O)(O2)C(=O)C(=O)N2CCCC[C@H]2C(=O)O[C@H]([C@H](C)C[C@@H]2CC[C@@H](O)[C@H](OC)C2)CC(=O)[C@H](C)/C=C(\C)[C@@H](O)[C@@H](OC)C(=O)[C@H](C)C[C@H](C)/C=C/C=C/C=C/1C` [rapamycin], the “suppression of survival of S. typhimurium in murine macrophages” value with S. typhimurium [5] was “capable of suppressing survival”. Besides, in the data set with S. typhimurium [5] (S. typhimurium in murine macrophages), the “fold higher concentration required to match bacterial clearance caused by OSU-03012” value is given as ~100 fold.
